# Tested on: U87 cells
# Assay: miR-17 level under tunicamycin-induced ER stress
# Assay type: cell-based
# Conditions: data not shown
# Method: U87MG (ATCC) and U251MG (Sigma, St Louis, Mo., USA) cells were authenticated as recommended by AACR (http://aacrjournals.org/content/cell-line-authentication-information) and tested for the absence of mycoplasma using MycoAlert® (Lonza, Basel, Switzerland) or MycoFluor (Invitrogen, Carlsbad, Calif., USA). U87 cells (ATCC) were grown in DMEM glutamax (Invitrogen, Carlsbad, Calif., USA) supplemented with 10% FBS. U87 were stably transfected at MOI=0.3 with pCDH-CMV-MCS-EF1-Puro-copGFP (System biosciences) empty vector (EV), pCDH-CMV-MCS-EF1-Puro-copGFP containing IRE1alpha wild-type sequence (WT) or mutated sequence (P336L, A414T, S769F or Q780*). U87 cells were selected using 2 μg/mL puromycin and polyclonal populations were tested for GFP expression. Transfections of GBM primary cell lines with IRE1 WT and Q780* were performed using Lipofectamine LTX (ThermoFisher Scientific), according to the manufacturer's instructions. For microarray experiments, tunicamycin (purchased from Calbiochem (Merck KGaA, Darmstadt, Germany)) was used at […] for 16 hrs. Actinomycin D were purchased from Sigma-Aldrich (St Louis, Mo., USA) and used as indicated. […]
# Total RNA was prepared using the Trizol reagent (Invitrogen, Carlsbad, Calif., USA). Semi-quantitative analyses were carried out as previously described. […]
substance,measurement,value
tunicamycin,miR-17 degradation,led to further miR-17 degradation

# From patent publication US11525165B2, “Method of selection of an IRE1-inhibitor therapy for patient suffering from cancer” (INSERM (INSTITUT NATIONAL DE LA SANTÉ ET DE LA RECHERCHE …, priority 2017, dated 2022)
